In EP0699074B1, “THROMBIN INHIBITORS” (Merck & Co., Inc., priority 1993, dated 1994):

Target: human α-thrombin (Homo sapiens, UniProt P00734)
Conditions: 4-4 (L at Acg center, later eluting HPLC peak) compared with its diastereomer 4-3 (D)
Experimental: Trypsin assays also contained 1 mM CaCl2.
Concentrations of stock solutions of Z-GPR-afc were determined from measurements of absorbance at 380 nm of the 7-amino-4-trifluoromethyl coumarin produced upon complete hydrolysis of an aliquot of the stock solution by thrombin.
Times required to achieve equilibration between enzyme and inhibitor were determined in control experiments. Initial velocities of product formation in the absence (Vo) or presence of inhibitor (Vi) were measured.

CNC(=O)C(=O)[C@@H](NC(=O)[C@@H]1CCCN1C(=O)[C@@H](Cc1ccccc1)NC)[C@H]1CC[C@H](N)CC1 [4-4, H-NMe-D-Phe-Pro-t-L-AcgΨ[COCO]-NHMe]
thrombin inhibitor potency (comparison of the two isomers): more potent thrombin inhibitor
